Source: patent US8618138B2, “Indole amide derivatives and related compounds for use in the treatment of neurodegenerative diseases” (Katholieke Universiteit Leuven, K.U. Leuven R&D, priority 2009, dated 2013)

How the values were obtained:
M17-TAU P301L cells = assay: TAU cytotoxicity assay: LDH leakage of retinoic acid incubated M17-TAU P301L cells; type: cell-based, human; conditions: Homo sapiens, 168 h, reduction of LDH activity of retinoic acid incubated M17-TAU P301L cells, 7 days
Method in brief: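 M17 neuroblastoma cells stably expressing human TAU P301L, seeded at 2500 cells/cm2 in Optimem with 1% FCS, then given 2.5 μM retinoic acid (stock before 1:1 addition) and grown 7 days at 37 °C. Cytotoxicity read as LDH leaked into medium; EC50 derived from these measurements.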

[1] = system: TAU and phospho-isoforms thereof; assay: In-vivo inhibition of pathological TAU-phosphorylation, Western analysis of soluble brain protein fractions; design: species or system Human TAU R406W transgenic mice
Text: Quantification of Western analyses of TAU and phospho-TAU species of the soluble protein fraction prepared from […] of all individual mice used in this study (n=10 for each treatment group). TAU signals of all individual mice were normalized against neuron specific enolase (NSE) using antibodies (monoclonal anti-NSE antibody, clone 37E4, Abcam) to correct for possible loading control differences. The graphs depict the mean normalised TAU signals±SEM. The TAU signals were obtained by using antibodies directed against:
(A) pan-TAU (anti-TAU monoclonal antibody (mAb) HT7, Thermo Scientific; detects all tau species independent of phosphorylation status),
(B) phosphorylated tau on pS202, T205 (AD2 anti-TAU antibody, Biorad) and unphosphorylated tau on pS202 (anti-TAU-1 antibody, clone PC1C6, Millipore), the graph depicts the ratio of AD2/TAU-1;
(C) phosphorylated tau on pT231 (AT180 anti-TAU mAb, Thermo Scientific), and
(D) phosphorylated tau on pT181 (AT270 anti-TAU mAb, Thermo Scientific).
Statistics: students two-tailed T-test*p<0.05, **p<0.01.
Human TAU R406W transgenic mice (Zhang et al, J. of Neuroscience 24(19):4657-4667, 2004) were treated once-a-day subcutaneously for 4 weeks with compound D5 (see table 1) dissolved in arachidin oil at a dose of 35 mg/kg. Correspondingly vehicle treated transgenics were included as controls. At the end of the treatment period mice were sacrificed and brainstem was stereotactically collected. Soluble protein fractions were prepared (Terwel et al, J Biol Chem 280(5):3963-73, 2005) from the brain stem and subjected to Western analysis using antibodies directed against TAU and several different phospho-isoforms thereof.

[2] = TAU R406W transgenic mice, 35 mg/kg subcutaneously once-a-day for 4 weeks, vs vehicle, Western blot of soluble protein fraction

Row | SMILES | EC50 (M17-TAU P301L cells) [nM] | Phosphorylation of threonine residue 181 of TAU (AT270, FIG. 3 D) [1, 2] | TAU phosphorylated at serine 202 and tyrosine 205 (ratio AD2/TAU-1, FIG. 3 B) [1, 2] | TAU phosphorylated at tyrosine residue 231 (AT180, FIG. 3 C) [1, 2] | total TAU levels (pan-TAU, HT7 antibody, FIG. 3 A) [1, 2] | pathological TAU-species in-vivo (FIG. 3 legend) ([1]; Western analyses of TAU and phospho-TAU species, soluble protein fraction, n=10 per group)
1 | O=C(NCCc1c[nH]c2ccc(Cl)cc12)c1cc(Cc2cc(F)ccc2F)on1 [Example D5, N-(2-(5-chloro-1H-indol-3-yl)ethyl)-5-(2,5-difluorobenzyl)isoxazole-3-carboxamide] | 12 | not affected | robust and statistically significant reduction | robust and statistically significant reduction | not statistically significant affected | reduces pathological TAU-species in-vivo
2 | O=C(NCCc1c[nH]c2ccc(Cl)cc12)c1cc(Cc2cccc(C(F)(F)F)c2)on1 [Example D30, N-(2-(5-chloro-1H-indol-3-yl)ethyl)-5-(3-(trifluoromethyl)benzyl)isoxazole-3-carboxamide] | 42 | – | – | – | – | –
3 | O=C(NCCc1c[nH]c2ccc(Cl)cc12)c1cc(-c2ccco2)on1 [Example D11, N-(2-(5-chloro-1H-indol-3-yl)ethyl)-5-(furan-2-yl)isoxazole-3-carboxamide] | 17 | – | – | – | – | –
4 | N#Cc1ccc(Cc2cc(C(=O)NCCc3c[nH]c4ccc(Cl)cc34)no2)cc1 [Example D4, N-(2-(5-chloro-1H-indol-3-yl)ethyl)-5-(4-cyanobenzyl)isoxazole-3-carboxamide] | 9 | – | – | – | – | –
